The text below walks through data of paper PMC8388771, “Cationic Peptidomimetic Amphiphiles Having a N-Aryl- or N-Naphthyl-1,2,3-Triazole Core Structure Targeting Clostridioides (Clostridium) difficile: Synthesis, Antibacterial Evaluation, and an In Vivo C. difficile Infection Model” (Antibiotics, 2021).

≈ marks a conversion by molar mass, not a printed value. Read-outs that look alike come from different tables or passages of the source.

Series [1] deals with C. albicans ATCC 90028. In words: CO-ADD MIC assay, C. albicans ATCC 90028. In kind it is cell-based. To be noted: Candida albicans, ATCC90028, Table S1. The source says: (§1) The N-arytriazole and N-naphthyltriazole peptidomimetics were subjected to antimicrobial screening. […] Vancomycin, colistin, fluconazole, and tamoxifen were used as positive controls (see Table 1 for details).
(§2) Secondary screening (MRSA and Gram-negative bacteria) and cytotoxicity assay–performed by the Community for Open Antimicrobial Drug Discovery (CO-ADD). Samples were provided to CO-ADD [29] for antimicrobial screening by whole cell growth inhibition assays.

The test system of series [2] is S. pneumoniae ATCC 49619. The series can be described thus: Primary MIC assay, S. pneumoniae ATCC 49619. The class given is cell-based, Streptococcus pneumoniae. The following applies: Streptococcus pneumoniae, ATCC49619; Table 1; read-out: MIC S. pneumoniae ATCC 49619. The method, then:
as §1
(§3) Primary screening (Gram-positive bacteria). Primary MIC assays were performed as described by the Clinical and Laboratory Standards Institute for aerobic and anaerobic bacteria. MIC values for vancomycin were within acceptable QC ranges.

Series [3] is described as follows: Cytotoxicity (CC50) assay by CO-ADD. In kind it is cell-based, human. To be noted: human, HEK293 cells (ATCC CRL-1573); Table 1; cytotoxicity on HEK293 cells, tested at ≤32 µg/mL.
Text: as §1, §2
Cytotoxicity Assay. These were performed as described previously.

Series [4] deals with A. baumannii ATCC 19606. In words: CO-ADD MIC assay, A. baumannii ATCC 19606. In kind it is cell-based. The following applies: Acinetobacter baumannii, ATCC19606, Table S1.
Text: as §1, §2
(§4) Bacterial Inhibition–MIC Assay. These were performed as described previously.

The test system of series [5] is C. difficile 132 (RT027). The series can be described thus: Primary MIC assay, C. difficile 132 (RT027). The class given is cell-based, Clostridioides difficile. The following applies: Clostridioides difficile; Table 1; read-out: MIC C. difficile 132 (RT027). The method, then: as §1, §3
In series [6] the test system is S. aureus NCTC 10442. In words: Primary MIC assay, S. aureus NCTC 10442 (MRSA). The following applies: Staphylococcus aureus, MRSA. In kind it is cell-based. Here is the method: as §1, §3
The subject of series [7] is S. aureus ATCC 29213. In words: Primary MIC assay, S. aureus ATCC 29213. In kind it is cell-based. The following applies: Staphylococcus aureus, ATCC29213; Table 1; read-out: MIC S. aureus ATCC 29213. Here is the method:
as §1, §3

Series [8] deals with S. aureus ATCC 43300. The series can be described thus: CO-ADD MIC assay, S. aureus ATCC 43300 (MRSA). The class given is cell-based. To be noted: Staphylococcus aureus, MRSA, read-out: MIC S. aureus ATCC 43300.
Text: as §1, §2, §4

The subject of series [9] is Cryptococcus neoformans var. grubii ATCC 208821. The series can be described thus: CO-ADD MIC assay, C. neoformans var. grubii ATCC 208821. The class given is cell-based. To be noted: for MIC: Cryptococcus neoformans, ATCC208821, Table S1; for MIC C. neoformans var. grubii ATCC 208821: Table S1.
Text: as §1, §2

The subject of series [10] is E. coli ATCC 25922. The series can be described thus: CO-ADD MIC assay, E. coli ATCC 25922. The class given is cell-based. To be noted: Escherichia coli, ATCC25922, Table S1.
Text: as §1, §2, §4

For series [11], the system named is E. coli ATCC 25922. The series can be described thus: Primary MIC assay, E. coli ATCC 25922. In kind it is cell-based. The following applies: Escherichia coli, ATCC25922; Table 1; read-out: MIC E. coli ATCC 25922.
Series [12] has as its system human erythrocytes. In words: Hemolysis assay, HC50 determination. The class given is cell-based. The method, then: Hemolysis assay (human erythrocytes)–HC50 determination. These were performed as described previously.
Series [13] has as its system K. pneumoniae ATCC 700603. The series can be described thus: CO-ADD MIC assay, K. pneumoniae ATCC 700603. The class given is cell-based. The following applies: Klebsiella pneumoniae, ATCC700603, Table S1, multi-drug resistant.
Text: as §1, §2, §4

Series [14] has as its system P. aeruginosa ATCC 27853. In words: CO-ADD MIC assay, P. aeruginosa ATCC 27853. The class given is cell-based. To be noted: Pseudomonas aeruginosa, ATCC27853, Table S1.
Text: as §1, §2, §4

For series [15], the system named is E. faecalis ATCC 29212. The series can be described thus: Primary MIC assay, E. faecalis ATCC 29212. In kind it is cell-based, Enterococcus faecalis. To be noted: Enterococcus faecalis, ATCC29212; Table 1; read-out: MIC E. faecalis ATCC 29212. The method, then: as §1, §3
The subject of series [16] is C. difficile ATCC 700057. In words: Primary MIC assay, C. difficile ATCC 700057. To be noted: Clostridioides difficile, ATCC700057; Table 1; read-out: MIC C. difficile ATCC 700057. The class given is cell-based, Clostridioides difficile. Here is the method:
as §1, §3

[17] abbreviates: Table 1, read-out: MIC S. aureus NCTC 10442.
The mark [18] stands for this setting: Table 1, lysis of human erythrocytes.
[19] abbreviates: Table S1, footnote says lysis of sheep erythrocytes.

`CC(C)CCc1cnnn1-c1ccccc1OCC(=O)N[C@H](CCCCN)C(=O)N[C@H](CCCNC(=N)N)Cn1cc(CC2CCCCC2)nn1` [Compound 38]: the MIC is above 32 µg/mL in [1]; 128 µg/mL (≈ 181 µM) in series [2]; above 32 µg/mL in series [4]; above 128 µg/mL in [5]; 128 µg/mL (≈ 181 µM) in [6] (setting [17]); 128 µg/mL (≈ 181 µM) in [7]. In addition, the MIC in series [8] (Table S1, CO-ADD) is 32 µg/mL (≈ 45.3 µM); in series [9], 16 µg/mL (≈ 22.6 µM); in series [10], above 32 µg/mL; in series [11], above 128 µg/mL; in series [13], above 32 µg/mL; in series [14] it was above 32 µg/mL. Also, the minimal inhibitory concentration (MIC) in series [15] was above 128 µg/mL; in [16], 128 µg/mL (≈ 181 µM). In addition, the CC50 in [3] came to 32 µg/mL (≈ 45.3 µM). The HC50 in series [12] (setting [18]) and in [12] (setting [19]) was 32 µg/mL throughout.
Turning to `CC(C)CCc1cnnn1-c1ccccc1OCC(=O)N[C@H](CCCCN)C(=O)N[C@H](CCCNC(=N)N)Cn1cc(Cc2ccccc2)nn1.Cl.Cl` [Compound 39], the MIC is 16 µg/mL in series [1]; 16 µg/mL in series [2]; above 32 µg/mL in series [4]; 32 µg/mL in series [5]; 64 µg/mL in [6] (setting [17]); 32 µg/mL in [7]. The MIC in [8] (Table S1, CO-ADD) was 32 µg/mL; in series [9], 16 µg/mL; in series [10] it was above 32 µg/mL; in [11], 128 µg/mL; in series [13], above 32 µg/mL; in [14], above 32 µg/mL. Also, the MIC in series [15] stood at 32 µg/mL; in [16], 64 µg/mL. Also, the CC50 in series [3] is above 32 µg/mL. Further, the HC50 in series [12] (setting [18]) and in series [12] (setting [19]) was above 32 µg/mL each time.
Take `CC(C)CCc1cn(-c2c(OCC(=O)N[C@H](CCCCN)C(=O)N[C@H](CCCNC(=N)N)Cn3cc(CC4CCCCC4)nn3)ccc3ccccc23)nn1` [Compound 41]: the MIC was 32 µg/mL (≈ 42.3 µM) in series [1]; 16 µg/mL (≈ 21.1 µM) in series [2]; 32 µg/mL (≈ 42.3 µM) in series [4]; 16 µg/mL (≈ 21.1 µM) in series [5]; 8 µg/mL (≈ 10.6 µM) in series [6] (MRSA / NCTC 10442 / NCTC 104422, Table 2, read-out: MIC S. aureus NCTC 104422); 8 µg/mL (≈ 10.6 µM) in series [6] (setting [17]). For the same compound, the MIC in [7] was 8 µg/mL (≈ 10.6 µM); in series [8] (Table 2), 4 µg/mL (≈ 5.28 µM); in series [8] (Table S1, CO-ADD) it was 4 µg/mL (≈ 5.28 µM); in series [9], 4 to 8 µg/mL (≈ 5.28 to 10.6 µM); in series [10], 32 µg/mL (≈ 42.3 µM); in [11] it was 128 µg/mL (≈ 169 µM). Besides, the MIC in series [13] is 32 µg/mL (≈ 42.3 µM); in series [14] it was 16 µg/mL (≈ 21.1 µM); in series [15], 8 µg/mL (≈ 10.6 µM); in [16], 16 µg/mL (≈ 21.1 µM). The same compound returned a CC50 in [3] of 16 µg/mL (≈ 21.1 µM). For the same compound, the “MIC C. neoformans var. grubii ATCC 208821” value in series [9] was 4 µg/mL (≈ 5.28 µM). Besides, the HC50 was 32 µg/mL in [12] (setting [18]); 32 µg/mL in series [12] (Table 2, footnote says lysis of sheep erythrocytes); 32 µg/mL in series [12] (setting [19]).
For `CC(C)CCc1cnnn1-c1c(OCC(=O)N[C@H](CCCCN)C(=O)N[C@H](CCCNC(=N)N)Cn2cc(C3CCCCC3)nn2)ccc2ccccc12.Cl.Cl` [Compound 43], the MIC is above 32 µg/mL in series [1]; 4 µg/mL in [2]; 32 µg/mL in [4]; 128 µg/mL in series [5]; 16 µg/mL in series [6] (setting [17]); 16 µg/mL in [7]. Besides, the MIC in [8] (Table S1, CO-ADD) was 8 µg/mL; in [9] it was 4 to 8 µg/mL; in series [10] it was 32 µg/mL; in series [11], 64 µg/mL; in [13] it was above 32 µg/mL; in [14] it was 32 µg/mL. The MIC in [15] was determined as 64 µg/mL; in [16], 128 µg/mL. Besides, the CC50 in series [3] was above 32 µg/mL. Further, the “MIC C. neoformans var. grubii ATCC 208821” value in series [9] stood at 8 µg/mL. In addition, the HC50 in [12] (setting [18]) and in series [12] (setting [19]) was above 32 µg/mL throughout.
